Measured values from patent US9695155B2, “Herbicidal substituted pyrimidinyloxy benzene compounds” (E. I. DU PONT DE NEMOURS AND COMPANY, priority 2013, dated 2017).

Key:
pigweed [1] = test: Test A preemergence; assay type: in vivo, Amaranthus retroflexus
Outline: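 Injury scores run from 0, no effect, to 100, complete control, judged by eye against untreated plants roughly 10 days after treatment. Chemicals carried a surfactant in a non-phytotoxic solvent and went onto loam–sand soil preemergence or onto one- to two-leaf seedlings postemergence.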

blackgrass [2] = test: Test C preemergence; assay type: in vivo, Alopecurus myosuroides; details: for Blackgrass plant response rating: preemergence; for Plant response rating, Blackgrass: Preemergence, 31 g ai/ha, scale 0 to 100, 0 no effect, 100 complete control
Outline: (§1)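 Plants were kept under greenhouse conditions for 13–15 days following spray. Pre-emergent application went to soil (loam–sand), post-emergent to foliage at 1–4 leaves. Evaluation: visual, percent control against untreated checks.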

Italian ryegrass = test: Test C preemergence; assay type: in vivo, Lolium multiflorum; details: preemergence
Outline: as §1

morningglory = test: Test C preemergence; assay type: in vivo, Ipomoea coccinea; details: preemergence
Outline: as §1

yellow nutsedge [3] = test: Test C preemergence; assay type: in vivo, Cyperus esculentus; details: preemergence
Outline: as §1

pigweed [4] = test: Test C preemergence; assay type: in vivo, Amaranthus retroflexus; details: preemergence
Outline: as §1

ragweed = test: Test C preemergence; assay type: in vivo, Ambrosia elatior; details: preemergence
Outline: as §1

soybean = test: Test C preemergence; assay type: in vivo, Glycine max; details: preemergence
Outline: as §1

blackgrass [5] = test: Test C postemergence; assay type: in vivo, Alopecurus myosuroides; details: for Plant response rating (0 to 100), Blackgrass: 16 g ai/ha, 0 is no effect, 100 is complete control
Outline: as §1

wheat, winter = test: Test C postemergence; assay type: in vivo, Triticum aestivum; details: for Plant response rating (0 to 100), Wheat: 16 g ai/ha, 0 is no effect, 100 is complete control
Outline: as §1

corn = test: Test C postemergence; assay type: in vivo, Zea mays; details: for Plant response rating (0 to 100), Corn: 16 g ai/ha, 0 is no effect, 100 is complete control
Outline: as §1

giant foxtail = test: Test C postemergence; assay type: in vivo, Setaria faberii; details: for Plant response rating (0 to 100), Foxtail, Giant: 16 g ai/ha, 0 is no effect, 100 is complete control
Outline: as §1

yellow nutsedge [6] = test: Test C postemergence; assay type: in vivo, Cyperus esculentus; details: for Plant response rating (0 to 100), Nutsedge, Yellow: 16 g ai/ha, 0 is no effect, 100 is complete control
Outline: as §1

barnyardgrass = test: Test C postemergence; assay type: in vivo, Echinochloa crus-galli; details: for Plant response rating (0 to 100), Barnyardgrass: 16 g ai/ha, 0 is no effect, 100 is complete control
Outline: as §1

wild oat = test: Test C postemergence; assay type: in vivo, Avena fatua; details: for Plant response rating (0 to 100), Oat, Wild: 16 g ai/ha, 0 is no effect, 100 is complete control
Outline: as §1

chickweed = test: Test C postemergence; assay type: in vivo, Stellaria media; details: for Plant response rating (0 to 100), Chickweed: 16 g ai/ha, 0 is no effect, 100 is complete control
Outline: as §1

[7] = 16 g ai/ha, scale 0 to 100 (0 no effect, 100 complete control)
[8] = 62 g ai/ha, scale 0 (no effect) to 100 (complete control)
[9] = 125 g ai/ha, scale 0 (no effect) to 100 (complete control)
[10] = 31 g ai/ha, postemergence, visual rating, scale 0 to 100 (0 no effect, 100 complete control), 13 to 15 days
[11] = 125 g ai/ha, postemergence, visual rating, scale 0 to 100 (0 no effect, 100 complete control)
[12] = Postemergence, 62 g ai/ha, scale 0 to 100 (0 no effect, 100 complete control)
[13] = Postemergence, 31 g ai/ha, scale 0 to 100 (0 no effect, 100 complete control), 13 to 15 days

FCc1cn(-c2c(F)cccc2Oc2ncc(Cl)cn2)nn1 [Compound 154]
25: Ryegrass, Italian plant response rating (Italian ryegrass; [9])
20: Blackgrass plant response rating (blackgrass [2]; [8]) | Ryegrass, Italian plant response rating (Italian ryegrass; [8]) | Plant response rating, Barnyardgrass (barnyardgrass; [11])
65: Nutsedge, Yellow plant response rating (yellow nutsedge [3]; [9])
85: Morningglory plant response rating (morningglory; [9]) | Pigweed plant response rating (pigweed [4]; [7])
50: Morningglory plant response rating (morningglory; [8]) | Soybean plant response rating (soybean; [7])
0: Blackgrass plant response rating (blackgrass [2]; [7]) | Ryegrass, Italian plant response rating (Italian ryegrass; [7]) | Nutsedge, Yellow plant response rating (yellow nutsedge [3]; [7]) | Plant response rating (0 to 100), Blackgrass (blackgrass [5]; postemergence) | Blackgrass plant response rating (blackgrass [5]; [10]) | Plant response rating, Blackgrass (blackgrass [5]; [11]) | Plant response rating, Blackgrass (blackgrass [5]; [12]) | Plant response rating (0 to 100), Wheat (wheat, winter; postemergence) | Wheat plant response rating (wheat, winter; [10]) | Plant response rating, Wheat (wheat, winter; [12]) | Plant response rating (0 to 100), Corn (corn; postemergence) | Corn plant response rating (corn; [10]) | Plant response rating, Corn (corn; [11]) | Plant response rating, Corn (corn; [12]) | Plant response rating (0 to 100), Oat, Wild (wild oat; postemergence) | Oat, Wild plant response rating (wild oat; [10]) | Plant response rating, Oat, Wild (wild oat; [11]) | Plant response rating, Oat, Wild (wild oat; [12])
80: Soybean plant response rating (soybean; [8])
10: Plant response rating, Blackgrass (blackgrass [2]) | Morningglory plant response rating (morningglory; [7]) | Foxtail, Giant plant response rating (giant foxtail; [10]) | Nutsedge, Yellow plant response rating (yellow nutsedge [6]; [10]) | Plant response rating, Nutsedge, Yellow (yellow nutsedge [6]; [11]) | Plant response rating, Nutsedge, Yellow (yellow nutsedge [6]; [12]) | Plant response rating, Barnyardgrass (barnyardgrass; [12]) | Plant response rating, Chickweed (chickweed; [12])
95: Ragweed plant response rating (ragweed; [8]) | Soybean plant response rating (soybean; [9])
90: Blackgrass plant response rating (blackgrass [2]; [9]) | Ragweed plant response rating (ragweed; [9])
100: Pigweed plant response rating (pigweed [1]; 1000 g ai/ha, 0 to 100 scale, 0 no effect, 100 complete control, approx. 10 days) | Pigweed plant response rating (pigweed [4]; [8]) | Pigweed plant response rating (pigweed [4]; [9])
60: Plant response rating, Chickweed (chickweed; [11])
15: Plant response rating, Foxtail, Giant (giant foxtail; [11])
75: Ragweed plant response rating (ragweed; [7])
5: Nutsedge, Yellow plant response rating (yellow nutsedge [3]; [8]) | Plant response rating, Wheat (wheat, winter; [11]) | Plant response rating (0 to 100), Foxtail, Giant (giant foxtail; postemergence) | Plant response rating, Foxtail, Giant (giant foxtail; [12]) | Plant response rating (0 to 100), Nutsedge, Yellow (yellow nutsedge [6]; postemergence) | Plant response rating (0 to 100), Barnyardgrass (barnyardgrass; postemergence) | Barnyardgrass plant response rating (barnyardgrass; [10]) | Plant response rating (0 to 100), Chickweed (chickweed; postemergence) | Chickweed plant response rating (chickweed; [10])

Cc1cnc(Oc2cccc(C#N)c2-n2cc(I)cn2)nc1 [Compound 136]
35: Nutsedge, Yellow plant response rating (yellow nutsedge [3]; [9])
10: Morningglory plant response rating (morningglory; [8]) | Nutsedge, Yellow plant response rating (yellow nutsedge [3]; [8]) | Plant response rating, Foxtail, Giant (giant foxtail; [11]) | Plant response rating, Nutsedge, Yellow (yellow nutsedge [6]; [11])
20: Morningglory plant response rating (morningglory; [7]) | Ragweed plant response rating (ragweed; [8]) | Soybean plant response rating (soybean; [7])
80: Blackgrass plant response rating (blackgrass [2]; [9])
60: Morningglory plant response rating (morningglory; [9]) | Plant response rating, Chickweed (chickweed; [11])
85: Soybean plant response rating (soybean; [9])
100: Pigweed plant response rating (pigweed [1]; 500 g ai/ha, 0 to 100 scale where 0 is no effect and 100 is complete control) | Pigweed plant response rating (pigweed [4]; [9])
40: Pigweed plant response rating (pigweed [4]; [8])
90: Plant response rating, Pigweed (pigweed [1]; 125 g ai/ha, 0 to 100 scale where 0 is no effect and 100 is complete control)
70: Ragweed plant response rating (ragweed; [9])
15: Ryegrass, Italian plant response rating (Italian ryegrass; [9])
5: Plant response rating, Blackgrass (blackgrass [5]; [11]) | Plant response rating, Blackgrass (blackgrass [5]; [13]) | Plant response rating, Blackgrass (blackgrass [5]; [12]) | Plant response rating, Wheat (wheat, winter; [11]) | Plant response rating, Wheat (wheat, winter; [12]) | Plant response rating, Corn (corn; [11]) | Plant response rating (0 to 100), Foxtail, Giant (giant foxtail; postemergence) | Plant response rating, Foxtail, Giant (giant foxtail; [12]) | Plant response rating, Nutsedge, Yellow (yellow nutsedge [6]; [12]) | Plant response rating, Barnyardgrass (barnyardgrass; [11]) | Plant response rating, Oat, Wild (wild oat; [11]) | Plant response rating, Oat, Wild (wild oat; [12]) | Plant response rating (0 to 100), Chickweed (chickweed; postemergence) | Plant response rating, Chickweed (chickweed; [12])
50: Soybean plant response rating (soybean; [8])
75: Blackgrass plant response rating (blackgrass [2]; [8])
0: Blackgrass plant response rating (blackgrass [2]; [7]) | Plant response rating, Blackgrass (blackgrass [2]) | Ryegrass, Italian plant response rating (Italian ryegrass; [7]) | Ryegrass, Italian plant response rating (Italian ryegrass; [8]) | Nutsedge, Yellow plant response rating (yellow nutsedge [3]; [7]) | Pigweed plant response rating (pigweed [4]; [7]) | Ragweed plant response rating (ragweed; [7]) | Plant response rating (0 to 100), Blackgrass (blackgrass [5]; postemergence) | Plant response rating (0 to 100), Wheat (wheat, winter; postemergence) | Plant response rating (0 to 100), Corn (corn; postemergence) | Plant response rating, Corn (corn; [12]) | Plant response rating (0 to 100), Nutsedge, Yellow (yellow nutsedge [6]; postemergence) | Plant response rating (0 to 100), Barnyardgrass (barnyardgrass; postemergence) | Plant response rating, Barnyardgrass (barnyardgrass; [13]) | Plant response rating, Barnyardgrass (barnyardgrass; [12]) | Plant response rating (0 to 100), Oat, Wild (wild oat; postemergence)
